Test results as given in US20010051184A1, “METHOD FOR USING SOLUBLE CURCUMIN TO INHIBIT PHOSPHORYLASE KINASE IN INFLAMMATORY DISEASES” (priority 1999, published 2001).

Key:
epidermal CD8+ T cells = test: Epidermal CD8+ T-cell density in treated psoriasis; format: in vivo, human; details: mean, untreated 38.2
Description: (§1) With consent, punch biopsies were collected (6 mm) from active plaques of 10 patients with active untreated psoriasis, from resolving plaques from 10 patients each treated with curcumin alcoholic gel (1%) for 4-6 weeks, and with Dovonex ointment for 6-18 months. Normal skin was also biopsied from 10 non-psoriatic patients to monitor the results. Biopsy specimens for immunocytochemistry were embedded in OCT compound (Tissue-Tek), snap-frozen in liquid nitrogen and stored at −70° C. Serial cryostat sections (4 Tm) were mounted on gelatin-coated slides and air-dried for 30 mins at room temperature. The mounted sections were then freeze-dried for 4 hours, fixed in acetone for 20 mins at room temperature, and air-dried for 5 mins prior to immunostaining. Monoclonal antibodies (as listed at Table 7), were added to the sections, which were then incubated for 60 mins at room temperature, washed in phosphate-buffered saline (PBS) pH 7.6, and overlaid with peroxidase conjugate. All monoclonal antibodies had been obtained from Becton-Dickinson and were used at 1:100 dilution. The sections were then washed with PBS and the peroxidase color developed using diaminobenzidine. Negative controls from all patients were processed as above, omitting the monoclonal antibodies. […] The density of the epidermal CD8+ T-cells was enumerated and quantified as the number of epidermal CD8+ T cells per hpf. […]

psoriatic plaques = test: Clinical resolution of psoriatic plaques; format: in vivo, human; details: clinical observations
Source text: With consent, punch biopsies were collected (6 mm) from active plaques of 10 patients with active untreated psoriasis, from resolving plaques from 10 patients each treated with curcumin alcoholic gel (1%) for 4-6 weeks, and with Dovonex ointment for 6-18 months. Normal skin was also biopsied from 10 non-psoriatic patients to monitor the results.
In this study, the anti-psoriatic activity of curcumin is reported. Also known as diferuloylmethane, curcumin is a component in spices such as turmeric and ginger. […] Based on clinical observations that untreated psoriatic plaques resolve within 4-6 weeks with curcumin and between 6-18 months or more with Dovonex, the results of this Example lead to the conclusion that curcumin is at least as effective as Dovonex in producing clinical resolution of psoriatic plaques.

phosphorylase kinase = test: Phosphorylase kinase activity in treated psoriatic epidermis (Example 6); format: in vivo, human; details: mean±SD, n=10; curcumin alcoholic gel (1%) 4-6 weeks, Dovonex ointment 6-18 months; untreated psoriasis 1204.6±804.3, normal skin 105.4±44.6
Description: With consent, punch biopsies were collected (6 mm) from active plaques of 10 patients with active untreated psoriasis, from resolving plaques from 10 patients each treated with curcumin alcoholic gel (1%) for 4-6 weeks, and with Dovonex ointment for 6-18 months. Normal skin was also biopsied from 10 non-psoriatic patients to monitor the results. From each site, skin biopsy samples (6 mm punch) were stored at −70° C., and processed thereafter as previously described (Heng et al. (1994), supra). Briefly, each frozen sample, with the epidermal surface facing upwards, was placed in a glass tube to which 3 ml Tris-HCl buffer (10 mM Tris-HCl, pH 7.8, 1 mM dithiothreitol (DDT), 3 mM MgSO4 and 1 mM EGTA) was added. This was homogenized vigorously with a Teflon plunger in a TRIS-R model K41 homogenizer for 1 sec. Homogenization was repeated if necessary. The lysate of epidermal cells, separated from the dermis, was in the cytosolic solution. The fibroblasts that were inadvertently detached, together with the relatively intact piece of dermis, were removed by decanting the cytosolic solution into a 5 ml capacity polypropylene test tube. […] The filter paper containing […] was counted in a liquid scintillation counter. Enzyme activity was determined based on the standard curve prepared with phosphorylase kinase of known activity supplied by Sigma Co (St. Louis, Mo.).

CD3+ T lymphocytes = CD3+ T lymphocytes in curcumin-treated psoriatic skin (immunohistochemistry, FIG. 9); format: in vivo, human; details: FIG. 9b; T lymphocytes present only within dermal blood vessels
[1] = test system: parakeratosis of stratum corneum; test: Severity of parakeratosis in treated psoriasis; format: in vivo, human; details: mean±SD, untreated 94.6±4.3%
Source text: With consent, punch biopsies were collected (6 mm) from active plaques of 10 patients with active untreated psoriasis, from resolving plaques from 10 patients each treated with curcumin alcoholic gel (1%) for 4-6 weeks, and with Dovonex ointment for 6-18 months. Normal skin was also biopsied from 10 non-psoriatic patients to monitor the results. Parakeratosis, assessed histologically by the loss of granular layer and the presence of nuclei of immature keratinocytes within the stratum comeum, reflects in part the migratory capacity of basal keratinocytes towards the stratum comeum. The severity of parakeratosis is assessed as % involvement of a 4 mm linear strip of stratum comeum. An average of three sections per biopsy specimen was used for data analysis.

HLA-DR+ cells = test: HLA-DR expression in treated psoriasis; format: in vivo, human
Description: as §1, with “diaminobenzidine.” for “diaminobenzidine. Negative controls from all patients were processed as above, omitting the monoclonal antibodies.”, “activated HLA+ inflammatory cell population” for “density of the epidermal CD8+ T-cells”, “assessed as abundant (200-500 or more cells/hpf), moderate (50-200 cells/hpf),” for “enumerated”, “sparse (1-50/hpf).” for “quantified as the number of epidermal CD8+ T cells per hpf.”

TRR+ keratinocytes = test: Transferrin receptor (TRR) expression by keratinocytes in treated psoriasis; format: in vivo, human; details: mean, n=10; treated resolving psoriasis; untreated 60.1%, normal skin 4.3%
Description: With consent, punch biopsies were collected (6 mm) from active plaques of 10 patients with active untreated psoriasis, from resolving plaques from 10 patients each treated with curcumin alcoholic gel (1%) for 4-6 weeks, and with Dovonex ointment for 6-18 months. Normal skin was also biopsied from 10 non-psoriatic patients to monitor the results. Biopsy specimens for immunocytochemistry were embedded in OCT compound (Tissue-Tek), snap-frozen in liquid nitrogen and stored at −70° C. Serial cryostat sections (4 Tm) were mounted on gelatin-coated slides and air-dried for 30 mins at room temperature. The mounted sections were then freeze-dried for 4 hours, fixed in acetone for 20 mins at room temperature, and air-dried for 5 mins prior to immunostaining. Monoclonal antibodies (as listed at Table 7), were added to the sections, which were then incubated for 60 mins at room temperature, washed in phosphate-buffered saline (PBS) pH 7.6, and overlaid with peroxidase conjugate. All monoclonal antibodies had been obtained from Becton-Dickinson and were used at 1:100 dilution. […] The expression of TRR on basal and suprabasal keratinocytes was quantified as the percentage of TRR+ keratinocytes per rete ridge. The keratinocytes of 10 consecutive rete ridges were assessed in for each biopsy and the results averaged.

[2] = Solubility study on curcumin; format: physicochemical; details: for Solubility result: 0.5 g of curcumin
Description: Table 1 reports the results of a solubility study on curcumin. […] Curcumin is also not soluble in cold mineral oil or hot mineral oil. However, curcumin is soluble in 70% isopropyl alcohol to at least the extent of 0.5 g/50 ml.

- Solubility in 70% isopropyl alcohol ([2]; 70% isopropyl alcohol): ≥ 0.5 g/50 ml
- Solubility result ([2]; 70% isopropyl alcohol, 5 ml): Soluble (some precipitate?
- Solubility result ([2]; 70% isopropyl alcohol, 50 ml): Soluble (no precipitate)
- Solubility result ([2]; Cold water, 5 ml): Not soluble (precipitate present)
- Solubility result ([2]; Cold water, 50 ml): Not soluble (precipitate present)
- Solubility result ([2]; Cold water, 500 ml): Not soluble (precipitate present)
- Solubility result ([2]; Mineral oil (140° F.), 5 ml): Not soluble (precipitate present)
- Solubility result ([2]; Mineral oil (140° F.), 50 ml): Not soluble (precipitate present)
- Solubility result ([2]; Mineral oil, 5 ml): Not soluble (precipitate present)
- Solubility result ([2]; Mineral oil, 50 ml): Not soluble (precipitate present)
- Solubility result ([2]; Water (200° F.), 5 ml): Not soluble (precipitate present)
- Solubility result ([2]; Water (200° F.), 50 ml): Not soluble (precipitate present)
- Solubility result ([2]; Water (200° F.), 500 ml): Not soluble (precipitate present)
- Solubility ([2]; cold mineral oil): not soluble
- Solubility ([2]; cold water): not soluble
- Solubility ([2]; hot mineral oil): not soluble
- Solubility ([2]; hot water): not soluble
Structure (SMILES): COc1cc(/C=C/C(=O)CC(=O)/C=C/c2ccc(O)c(OC)c2)ccc1O [curcumin, (E, E) 1,7-bis(4-hydroxy-3-methoxyphenyl)-1,6-heptadiene-3,5-dione]
- Number of epidermal CD8+ cells/hpf (epidermal CD8+ T cells): 0.6 cells/hpf
- Time for psoriatic plaques to resolve under curcumin treatment (psoriatic plaques): 4-6 weeks
- Phosphorylase kinase activity in treated psoriatic epidermis (phosphorylase kinase): 207.2±97.6 units/mg protein
- CD3+ T lymphocytes in epidermis of treated resolving psoriatic skin (CD3+ T lymphocytes): lack of T lymphocytes in epidermis
- Parakeratosis, linear involvement of stratum corneum [1]: 1.4±2.4%
- Overall HLA-DR expression (HLA-DR+ inflammatory cell population), grade per specimen (HLA-DR+ cells; 10 skin specimens per treated group, untreated abundant in 10/10): sparse (sparse (1-50/hpf))
- HLA-DR expression on endothelial cells and keratinocytes (HLA-DR+ cells; treated psoriasis, untreated strongly positive): not observed
- Percentage of TRR+ keratinocytes/rete ridge (TRR+ keratinocytes): 4.3%
